Data taken from PubChem BioAssay AID179 (DTP/NCI, 2004).
Several values for one entry are separate records, joined by “and”; a condition that tells them apart may be missing. Equal values may be shown once. Activity calls are given as the source filed them.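 Rule for the calls: active = compounds giving half or more protection of infected cells from virus-caused growth loss, again on retest; inactive = the rest.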

Tested on: CEM cells HIV-1 protection, formazan growth assay
Experiment: NCI AIDS Antiviral Assay
Details: for IC50: measured here: growth of uninfected CEM cells
Method in brief: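 Category rules: moderately active means at least 50% protection on retest, and confirmed active means 100% protection reproducibly. The underlying data came from a formazan growth assay in HIV-1-infected CEM cells.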

SMILES | EC50 [µM] | IC50 | outcome
O=C(O)c1ccc(Nc2nc3ccc(C(F)(F)F)cc3nc2C(=O)O)cc1 | > 200 | > 200 µM | –
C=C1C[C@H]2[C@@H]3C=C(C)C4=CC(=O)CC[C@]4(C)[C@H]3CC[C@]2(C)[C@@]1(OC(C)=O)C(C)=O | > 200 | 28.2 µM | –
CSCCC(N)P(C)(=O)O (centres undefined) | > 200 | > 200 µM | –
CN(Cc1nc2c(N)nc(N)nc2[nH]c1=O)c1ccc(C(=O)NC(CCC(=O)O)C(=O)O)cc1 (centres undefined) | > 200 | 10.7 µM and 8.13 µM | –
CCCCc1ccc(-n2sc3ncc(C)cc3c2=O)cc1 | 1.23 | 21.9 µM | –
CC1CCC(=O)C(C(=O)CC2CC(=O)NC(=O)C2)C1 (centres undefined) | > 200 | > 200 µM | –
OC(c1cccs1)c1cc2ccccc2s1 (centres undefined) | > 200 | 117 µM | –
C[C@]12CCC(OS(=O)(=O)O)CC1=CCC1C2CC[C@@]2(C)C1CC[C@@H]2C(=O)O (some centres undefined) | > 427 | 417 µM | –
O=c1[nH]c2ccccc2n1C1CCN(CCOc2ccccc2)CC1 | > 200 | 23.4 µM | –
CC(NS(C)(=O)=O)c1ccccc1 (centres undefined) | > 200 | > 200 µM | –
COc1ccc(C2C(Cl)C(=O)N2n2cnc3ccccc3c2=O)cc1OC (centres undefined) | > 339 | 46.8 µM | –
CCCCOC(=O)C1CSSCC(NC(C)=O)C(=O)N1 (centres undefined) | > 200 | 112 µM | –
CC1=C(C(=O)NNC(=O)C(N)=O)CC(C(=O)NNC(=O)C(N)=O)=C(C)N1 | > 200 | > 200 µM | –
COc1ccc(-c2nc(-c3cnccn3)n(C3OC(CO)C(O)C3O)n2)cc1 (centres undefined) | > 200 | > 200 µM | –
CC1(C)NNC(=S)NC1=O | > 1580 | > 1580 µM | –
O=S(=O)(CC#CCO)c1ccc2ccccc2c1 | – | – | inactive
CC1C2=C(CCCC2=O)N(c2ccc(Cl)cc2)C2=C1C(=O)CCC2 | > 100 | > 100 µM | –
CC(C)=CCC/C(C)=C/COC(=O)N(c1ccccc1)c1ccccc1 | > 200 | > 200 µM | –
CCOC(=O)NN(C(=O)OCC)C(=C(c1ccccc1)N1CCOCC1)N(NC(=O)OCC)C(=O)OCC | > 200 | > 200 µM | –
O=C1N[C@H]2c3c(Cl)sc(Cl)c3C(=O)[C@H]2O1 | > 20 | 0.955 µM | –
COc1cc2c(cc1OC)C1Cc3cc(OC)c(OC)cc3C(C2)N1C | > 708 | 52.5 µM and 64.6 µM | –

SMILES | EC50 [µM] | IC50 | outcome
COC(=O)c1cc2ccc(OC(C)=O)c(OC(C)=O)c2cn1 | > 166 | 0.851 µM | –
CCN(CC)C(=S)[S][Bi]([S]C(=S)N(CC)CC)[S]C(=S)N(CC)CC | > 7.94 | 0.11 µM | –
Cc1ccc(S(=O)(=O)SCCCSS(=O)(=O)c2ccc(C)cc2)cc1 | > 89.1 | 15.5 µM | –
CCN(CC)CCN1C(=O)c2cccc3cccc(c23)C1=O | > 200 | 9.77 µM | –
O=C(O)c1cc(O)cc(O)c1N=Nc1ccc(/C=C/c2ccc(N=Nc3c(O)cc(O)cc3C(=O)O)cc2S(=O)(=O)O)c(S(=O)(=O)O)c1 | 0.813 | 91.2 µM | –
C(=C\c1c[nH]c2ccccc12)/c1ccc2ccccc2n1 | 0.0631 | 16.6 µM | –
Cn1cc(NC(=O)Nc2cc(C(=O)Nc3cc(C(=O)Nc4ccc(S(=O)(=O)O)c5cccc(S(=O)(=O)O)c45)n(C)c3)n(C)c2)cc1C(=O)Nc1cc(C(=O)Nc2ccc(S(=O)(=O)O)c3cccc(S(=O)(=O)O)c23)n(C)c1 | – | – | inactive
CC(=O)C1=C2SCCN2C(=O)CC1 | > 135 | > 135 µM | –
C=C(C)C(CC=C(C)C)Cc1c(O)cc(OC)c2c1OC(c1ccc(O)cc1O)C(O)C2=O (centres undefined) | > 200 | 29.5 µM | –
N[C@H](C(=O)O)[C@H](Cl)CC(=O)O | > 245 | > 245 µM | –
NC(=O)C(=O)Cc1nc2ccccc2s1 | > 91.2 | > 91.2 µM | –
CCC(=O)[O-].CCC(=O)[O-].N.N.N.N.[Co+3].[O-][Cl+3]([O-])([O-])[O-] | – | – | inactive
Cc1cccc(C2=NC(C)(C)C(C)(C)N=C2c2cccc(C)n2)n1 | > 81.3 | > 81.3 µM | –
CCOC(=O)C1(C/C=C/CBr)Cc2ccccc2C1=O (centres undefined) | > 200 | 1.66 µM | –
COc1ccc(N2C(=O)CC(=O)N(C(=O)CCCCCCCCC(=O)N3C(=O)CC(=O)N(c4ccc(OC)cc4)C3=S)C2=S)cc1 | > 200 | 102 µM | –
CN/N=C(/CCN1CCCC1)CC(c1ccccc1)c1c(O)c2ccccc2oc1=O (centres undefined) | > 93.3 | 74.1 µM | –
CCN(C(=N)C#N)c1ccccc1 | > 513 | 302 µM | –
Cc1ccc2nc(-c3ccc4nc(-c5ccc(N=Nc6ccc(-c7nc8ccc(-c9nc%10ccc(C)c(S(=O)(=O)O)c%10s9)cc8s7)cc6)cc5)sc4c3)sc2c1S(=O)(=O)O | 19.5 | > 200 µM | –
CCOCc1c(C)cc(C)c(C2C(C(=O)c3ccccc3)N3c4ccccc4C=CC3C2(C#N)C(=O)OCC)c1C (centres undefined) | > 200 | 33.9 µM | –
O=C(O)C1SCCS1 | > 200 | > 200 µM | –
